Source: US8247615B2, “Process of converting esterified xanthophylls from Capsicum to non-esterified xanthophylls in high yields and purities” (Kalamazoo Holdings, Inc., priority 2010, dated 2012)
≈ marks a conversion by molar mass, not a printed value. Entries after “also recorded” stand apart in the source; their conditions may differ.

Experiments:
Format in all cases: physicochemical
[1] = Stability of zeaxanthin in strongly basic (pH~14) aqueous methanolic potassium hydroxide at room temperature for 15 days
Description: A reaction was carried out using the same reactants at the same proportions under the same conditions as reaction 19 in the table in Example 1. The procedure was identical for the first 24 hrs as described for reaction 19, but after refluxing for 24 hours, the mixture was allowed to settle for 1 hour at which time the upper hexane layer was decanted away. The remaining lower phase was washed twice by partitioning with water (30 mL for each wash). In each case the lower aqueous phase was discarded and after the second water wash, methanol (75 mL) was added to the remaining upper phase. The mixture was then distilled to remove the remaining hexanes and then refluxed for five hours. The mixture was then allowed to cool and was centrifuged and decanted to afford a supernatant and a crude precipitate. […] The purity was 17.4%. In a separate experiment, the mixture was allowed to cool after distilling away hexane (i.e. the five hour reflux described above was not carried out) and placed in a separating funnel for 15 days at which time the supernatant was removed by decanting to afford a crude precipitate. […] The supernatant and both wash solutions were analyzed for zeaxanthin content and >99% of the input zeaxanthin was accounted for, even after sitting in caustic solution for two weeks!

[2] = Solubility of zeaxanthin in solvents (saturated solution, residue weighed); conditions: organic solvent or mixture, thermodynamic from solid
From the text: In a procedure identical to that described in Example 6 up until almost the final methanol desolventization step, rather than desolventizing the zeaxanthin methanol slurry, it was transferred along with 1.5 parts water (by volume) to a continuous extractor containing 1 part dichloromethane. The slurry was extracted with dichloromethane for four hours at which time the dichloromethane solution in the receiver was decanted away from the crystalline zeaxanthin that had formed. The crystals thereby obtained were 95.1% pure all-trans-zeaxanthin. The yield obtained was only 12.6%, but this experiment was only intended to produce purified zeaxanthin crystals. […] These crystals were homogenized in a mortar and pestle and added to separate vials containing various solvents until a saturated solution was obtained. In order to measure the solubility of zeaxanthin in different solvents (shown in Table 7 below), a 5.0 ml portion of the saturated supernatant was filtered, desolventized, and the residues weighed.

[3] = Stability of zeaxanthin on spray drying of the methanol slurry; conditions: spray dryer, inlet 120-160° C., outlet 60.5-87.2° C., nitrogen drying gas
Description: In an experiment identical to the procedure described in Example 6, the zeaxanthin/methanol slurry was desolventized using a spray dryer. […] Inlet temperatures ranged from 120° C. to 160° C., outlet temp was 60.5° C. to 87.2° C., and rotary atomizer was set at 5.5 bar. Nitrogen was used as the drying gas.

[4] = Stability of cis and trans isomers of zeaxanthin to the analytical sample preparation conditions; conditions: analytical saponification in refrigerator, between 2 and 119 hours
Description: […]
Using the sample preparation conditions above, duplicate samples were prepared from the same oleoresin and each were split into seven separate vials and then stored in the refrigerator. A vial from each of the duplicate samples was removed at various times and analyzed by HPLC. […] We therefore conclude that our sample preparation and analysis conditions are not changing the amounts of the two isomers and that the amounts measured are the amounts in the samples prior to sample preparation and analysis.

[5] = Stability of zeaxanthin to saponification / reflux in caustic aqueous methanolic potassium hydroxide
Description: In a procedure similar to that described in Example 2 after distilling away the hexane, the mixture was refluxed for a total of 40 hours and the content of zeaxanthin isomers was monitored by HPLC as a function of time. After refluxing for 40 hours the mixture was allowed to cool, then centrifuged to afford a supernatant and a crude precipitate. The crude precipitate was washed with methanol (4× by weight of crude precipitate) centrifuged and decanted to afford a wash solution and a refined precipitate. After desolventization, the powder was 59.0% pure zeaxanthin corresponding to a yield of 71%. The supernatant and the wash solution were both analyzed for zeaxanthin content and >99% of input zeaxanthin was accounted for, even after refluxing in caustic solution for 40 hours!

In the case of `CC1=C(/C=C/C(C)=C/C=C/C(C)=C/C=C/C=C(C)/C=C/C=C(C)/C=C/C2=C(C)CC(O)CC2(C)C)C(C)(C)CC(O)C1` (stereo not shown) [Zeaxanthin, zeaxanthin], the “input zeaxanthin accounted for” value ([1]; after sitting in caustic solution for two weeks (15 days), precipitate, supernatant and wash solutions) is reported as over 99%, the “degradation / loss of zeaxanthin” value ([1]; strongly basic solution (pH~14), room temperature, 15 days) is reported as “no degradation of zeaxanthin was observed; also recorded: nor was any significant loss of zeaxanthin observed; also recorded: no loss in zeaxanthin content” and the solubility ([2]; solvent Acetone) is reported as 1630 µg/mL (≈ 2870 µM). For the same compound, the solubility ([2]; solvent DCM (dichloromethane)) was 2960 µg/mL (≈ 5200 µM), the solubility ([2]; solvent EtOAc (ethyl acetate)) was 1070 µg/mL (≈ 1880 µM) and the solubility ([2]; solvent EtOH (ethanol)) was 40 µg/mL (≈ 70.3 µM). For the same compound, the solubility ([2]; solvent Hexane) was 68 µg/mL (≈ 120 µM), the solubility ([2]; solvent IPA (isopropyl alcohol)) was 81 µg/mL (≈ 142 µM) and the solubility ([2]; solvent Methanol) was 82 µg/mL (≈ 144 µM). The solubility ([2]; solvent MtBE (methyl tert-butyl ether)) was 726 µg/mL (≈ 1280 µM), the solubility ([2]; solvent THF (tetrahydrofuran)) was over 20400 µg/mL and the degradation of zeaxanthin [3] was “No degradation of zeaxanthin was observed”. The “change in amounts of cis and trans isomers” value [4] was “no change was observed”, the “input zeaxanthin accounted for” value ([5]; after refluxing in caustic solution for 40 hours, precipitate, supernatant and wash solution) was over 99% and the stability to degradation ([5]; reflux in very basic aqueous methanolic solution) was “stable to degradation”. The loss of zeaxanthin ([5]; saponification by the method of the present invention, Capsicum starting material) was under 1%.
